Legend:
recombinant human PAI-1 [1] = molecular target: T1, recombinant human PAI-1 (Homo sapiens, UniProt P05121); experiment: PAI-1 inhibitory activity, Test Method A (tPA fluorogenic substrate, Tris buffer pH8.0, 37 C); type: biochemical; conditions: for IC50: 50% inhibitory concentration of PAI-1 activity, according to the aforementioned method; for Inhibitory Ratio at 25 μM (%): Test Method A
recombinant human PAI-1 [2] = molecular target: T1, recombinant human PAI-1; experiment: Inhibition of complex formation of PAI-1 and tPA (SDS-PAGE); type: biochemical; conditions: 100 μM concentration
Description: To a 2.5 μL solution obtained by diluting a DMSO solution of the test compound at 4-fold concentration of the test concentration with PBS(-), 5 μL of 150 nM recombinant human PAI-1 solution adjusted with a phosphate buffer (pH6.6, 0.05M Sodium Phosphate, 0.1 M NaCl, 1 mM EDTA) was added, and reacted for 5 minutes at 37° C. […] of 600 nM recombinant human one-chain tPA solution adjusted with PBS(-) was added, and further reacted for 5 minutes at 37° C. 10 μL of stop buffer (1.25 mM Tris-HCl pH6.8, 4% SDS, 0.01% BPB, 14% Glycerol) was added, heated for 30 seconds at 100° C., and then the total amount of 20 μL was applied to 10% SDS-PAGE gel electrophoresis. When the test compound was not added as being a control, a band of PAI-1-tPA complex was observed.

T1 sequence (P05121 24-402): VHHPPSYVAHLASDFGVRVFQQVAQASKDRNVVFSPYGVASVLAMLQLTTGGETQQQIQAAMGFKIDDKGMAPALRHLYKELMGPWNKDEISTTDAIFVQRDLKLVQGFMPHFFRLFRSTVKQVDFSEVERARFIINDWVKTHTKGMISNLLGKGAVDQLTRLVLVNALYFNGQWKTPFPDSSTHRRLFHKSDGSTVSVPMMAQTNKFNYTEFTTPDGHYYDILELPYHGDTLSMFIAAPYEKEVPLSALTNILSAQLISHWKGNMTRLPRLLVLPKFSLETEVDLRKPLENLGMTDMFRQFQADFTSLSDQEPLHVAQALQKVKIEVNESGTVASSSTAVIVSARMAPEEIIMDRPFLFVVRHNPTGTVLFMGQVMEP

IC50 (recombinant human PAI-1 [1]) [nM] | Inhibitory Ratio at 25 μM (%) (recombinant human PAI-1 [1]; test compound 25 μM) | inhibition of the complex formation of PAI-1 and tPA observed with SDS-PAGE (recombinant human PAI-1 [2]) | Inhibitory Ratio at 25 μM (%) (recombinant human PAI-1 [1]; 25 μM test compound) | Structure (SMILES)
– | – | completely inhibited | 91 | O=C(Nc1ccc(O)c(O)c1)c1cc(C=C2SC(=O)N(Cc3cc(C(F)(F)F)cc(C(F)(F)F)c3)C2=O)ccc1O [compound 384]
– | – | completely inhibited | 96 | Cc1cc(C=C2SC(=O)N(Cc3ccc(Cl)c(Cl)c3)C2=O)cc(C(=O)Nc2ccc(O)c(O)c2)c1O [compound 401, 5-[3-Methyl-4-hydroxy-5-(3,4-dihydroxyphenylcarbamoyl)-benzylidene]-3-(3,4-dichlorobenzyl)thiazolidine-2,4-dione]
– | – | completely inhibited | 92 | O=C(Nc1ccc(O)c(O)c1)c1cc(C=C2SC(=O)N(Cc3ccc(C(F)(F)F)cc3)C2=O)ccc1O [compound 402]
– | – | completely inhibited | 71 | O=C(Nc1cc(O)c(O)c(O)c1)c1cc(C=C2SC(=O)N(Cc3ccc(Cl)c(Cl)c3)C2=O)ccc1O [compound 435]
210 | – | completely inhibited | >99 | O=C(Nc1cccc(O)c1O)c1cc(C=C2SC(=O)N(Cc3ccc(Cl)c(Cl)c3)C2=O)ccc1O [compound 436]
480 | – | completely inhibited | 71 | O=C(Nc1cc(Cl)ccc1Cl)c1cc(C=C2SC(=O)N(Cc3ccc(Cl)c(Cl)c3)C2=O)ccc1O [compound 441]
– | – | – | >99 | CC(C)C1=NN(Cc2ccc(Cl)c(Cl)c2)C(=O)C1=Cc1cc(O)c(O)cc1O.N=C(N)NCCC[C@H](N)C(=O)O.N=C(N)NCCC[C@H](N)C(=O)O [compound 554, di(L-(+)-arginine) salt of 4-(2,4,5-trihydroxybenzylidene)-1-(3,4-dichlorobenzyl)-3-isopropyl-2-pyrazolin-5-one]
– | – | – | >99 | CC(C)C1=NN(c2cc(Cl)cc(Cl)c2)C(=O)C1=Cc1cc(O)c(O)cc1Br [compound 556, 4-(2-Bromo-4,5-dihydroxybenzylidene)-1-(3,5-dichlorophenyl)-3-isopropyl-2-pyrazolin-5-one]
– | – | – | 82 | CCOC1=NN(c2ccc([N+](=O)[O-])cc2)C(=O)C1=Cc1cc(O)c(O)cc1Br [compound 557, 4-(2-Bromo-4,5-dihydroxybenzylidene)-1-(4-nitrophenyl)-3-ethoxy-2-pyrazolin-5-one]
– | – | – | >99 | CC(C)C1=NN(c2ccc(Cl)c(Cl)c2)C(=O)C1=Cc1cc(O)ccc1[N+](=O)[O-] [compound 558]
– | – | – | >99 | COc1cc(C=C2C(=O)N(c3ccc(Cl)c(Cl)c3)N=C2C(C)C)cc(C(=O)O)c1O [compound 559]
– | – | – | >99 | CCN(CC)c1ccc(O)c(C=C2C(=O)N(c3ccc(Cl)c(Cl)c3)N=C2C(C)C)c1 [compound 560]
– | – | – | 91 | COc1cc(C=C2C(=O)N(c3ccc(Cl)c(Cl)c3)N=C2C(C)C)cc([N+](=O)[O-])c1O [compound 561]

Second part, the compound before the results:

Structure (SMILES) | IC50 (recombinant human PAI-1 [1]) [nM] | Inhibitory Ratio at 25 μM (%) (recombinant human PAI-1 [1]; test compound 25 μM) | inhibition of the complex formation of PAI-1 and tPA observed with SDS-PAGE (recombinant human PAI-1 [2]) | Inhibitory Ratio at 25 μM (%) (recombinant human PAI-1 [1]; 25 μM test compound)
O=C1SC(=Cc2cccc(O)c2O)C(=O)N1Cc1cccc(Cl)c1Cl [compound 18, 5-(2,3-Dihydroxybenzylidene)-3-(2,3-dichlorobenzyl)thiazolidine-2,4-dione] | 380 | >99 | completely inhibited | –
O=C1SC(=Cc2cccc(O)c2O)C(=O)N1Cc1ccc(Cl)cc1Cl [compound 22, 5-(2,3-Dihydroxybenzylidene)-3-(2,4-dichlorobenzyl)thiazolidine-2,4-dione] | 440 | >99 | completely inhibited | –
O=C1SC(=Cc2cccc(O)c2O)C(=O)N1Cc1ccc(Br)cc1 [compound 36, 5-(2,3-Dihydroxybenzylidene)-3-(4-bromobenzyl)thiazolidine-2,4-dione] | 450 | >99 | completely inhibited | –
O=C1SC(=Cc2cccc(O)c2O)C(=O)N1Cc1ccc(C(F)(F)F)cc1 [compound 43, 5-(2,3-Dihydroxybenzylidene)-3-[4-(trifluoromethyl)benzyl]thiazolidine-2,4-dione] | 360 | >99 | completely inhibited | –
O=C1SC(=Cc2cccc(O)c2O)C(=O)N1Cc1ccc(C=Cc2ccccc2)cc1 [compound 56, 5-(2,3-Dihydroxybenzylidene)-3-(4-styrylbenzyl)thiazolidine-2,4-dione] | 140 | >99 | completely inhibited | –
O=C1C(=Cc2ccc(O)c(O)c2)SC(=S)N1Cc1ccc(Cl)c(Cl)c1 [compound 81, 5-(3,4-Dihydroxybenzylidene)-3-(3,4-dichlorobenzyl)rhodanine] | 230 | >99 | completely inhibited | –
O=C1C(=Cc2cc(O)c(O)cc2O)C(c2ccccc2)=NN1c1cc(Cl)cc(Cl)c1 [compound 136] | 390 | >99 | completely inhibited | –
CC(C)C1=NN(c2ccc(Cl)c(Cl)c2)C(=O)C1=Cc1cc(O)c(O)cc1O [compound 141, 4-(2,4,5-trihydroxybenzylidene)-1-(3,4-dichlorophenyl)-3-isopropyl-2-pyrazolin-5-one] | 240 | >99 | completely inhibited | –
CCOC1=NN(c2ccc([N+](=O)[O-])cc2)C(=O)C1=Cc1cc(O)c(O)cc1O [compound 156] | 300 | 70 | completely inhibited | –
O=C(Cc1cccc(Oc2ccccc2)c1)Nc1ccc(CN2C(=O)SC(=Cc3cccc(O)c3O)C2=O)cc1 [compound 312, 5-(2,3-Dihydroxybenzylidene)-3-{4-[(3-phenoxyphenyl)acetylamino]-benzyl}thiazolidine-2,4-dione] | 290 | – | completely inhibited | >99
O=C(Nc1ccc(CN2C(=O)SC(=Cc3cccc(O)c3O)C2=O)cc1)c1ccc(Oc2ccccc2)cc1 [compound 316, 5-(2,3-Dihydroxybenzylidene)-3-[4-(4-phenoxybenzoylamino)benzyl]-thiazolidine-2,4-dione] | 460 | – | completely inhibited | >99
O=C(Cc1cc(C(F)(F)F)cc(C(F)(F)F)c1)Nc1ccc(CN2C(=O)SC(=Cc3cccc(O)c3O)C2=O)cc1 [compound 317, 5-(2,3-Dihydroxybenzylidene)-3-{4-[3,5-Bis(trifluoromethyl)-phenylacetylamino]benzyl}thiazolidine-2,4-dione] | 420 | – | completely inhibited | >99
O=C(Cc1cccc(Oc2ccccc2)c1)Nc1cccc(CN2C(=O)SC(=Cc3cccc(O)c3O)C2=O)c1 [compound 320, 5-(2,3-Dihydroxybenzylidene)-3-{3-[(3-phenoxyphenyl)acetylamino]-benzyl}thiazolidine-2,4-dione] | 340 | – | completely inhibited | >99
N=C(N)NCCC[C@H](N)C(=O)O.N=C(N)NCCC[C@H](N)C(=O)O.N=C(N)NCCC[C@H](N)C(=O)O.O=C1SC(=Cc2cc(O)c(O)c(O)c2)C(=O)N1Cc1ccc(Cl)c(Cl)c1 [compound 334, tri(L-(+)-arginine) salt of 5-(3,4,5-trihydroxybenzylidene)-3-(3,4-dichlorobenzyl)thiazolidine-2,4-dione] | 540 | – | completely inhibited | >99
O=C1SC(=Cc2cc(O)c(O)c([N+](=O)[O-])c2)C(=O)N1Cc1ccc(Cl)c(Cl)c1 [compound 347] | 450 | – | completely inhibited | >99
COc1cc(C=C2SC(=O)N(Cc3ccc(Cl)c(Cl)c3)C2=O)cc(C(=O)Nc2ccc(O)c(O)c2)c1O [compound 349, 5-[3-Methoxy-4-hydroxy-5-(3,4-dihydroxyphenylcarbamoyl)-benzylidene]-3-(3,4-dichlorobenzyl)thiazolidine-2,4-dione] | 570 | – | completely inhibited | 87
O=C(Nc1ccc(O)c(O)c1)c1cc(C=C2SC(=O)N(Cc3ccc(Cl)c(Cl)c3)C2=O)ccc1O [compound 352] | – | – | completely inhibited | 66
O=C(Nc1cc(C(F)(F)F)ccc1Cl)c1cc(C=C2SC(=O)N(Cc3ccc(Cl)c(Cl)c3)C2=O)ccc1O [compound 423] | – | – | completely inhibited | 75

Reference: patent publication US20070276011A1, “Plasminogen Activator Inhibitor-1 Inhibitor” (priority 2003, published 2007)
